16 compounds from PubChem BioAssay (NCI) can be followed below.

Common to all, as to assay: DTP human tumour cell line panel, 48 h
For experiment [1], the system named is U251 CNS.
Experiment [2] deals with HCT-15 colon.
Experiment [3] has as its system SN12C renal.
Experiment [4] relates to IGROV1 ovarian.
For experiment [5], the system named is UACC-62 melanoma.
Experiment [6] deals with HCT-116 colon.
Experiment [7] concerns SNB-75 CNS.
Experiment [8] deals with SK-OV-3 ovarian.
Experiment [9] has as its system 786-0 renal.
Experiment [10] deals with OVCAR-3 ovarian.

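These data come from cells grown in 96-well plates and exposed to compound for 48 hours at five concentrations. The concentration for 50% growth inhibition is given as GI50. TGI denotes the concentration required for complete inhibition of growth.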 Some results are limits rather than exact numbers.

In general, TGI refers to the concentration at which net growth stops. Higher therefore signals lower sensitivity of the cells. As usually defined, the GI50 is the concentration at which growth is held to half of that of the control.

Take `COc1cc(/C=C/C(=N\NC(=O)c2ccccc2)c2sc(Nc3ccc(Cl)c(Cl)c3)nc2C)ccc1O`: the TGI was 88.9 µM in [1]; more than 100 µM in experiment [2]; more than 100 µM in experiment [3]; more than 100 µM in experiment [4]; 26.1 µM in experiment [5]; more than 100 µM in experiment [6]. In addition, the TGI in experiment [7] is more than 100 µM; in experiment [8] it was more than 100 µM; in [9], more than 100 µM; in [10], 76.6 µM.

Regarding `CN1CCN(Cc2ccc(NC(=O)c3ccc(C(C)(C)C)c(C#Cc4cnc5cccnn45)c3)cc2C(F)(F)F)CC1`, the GI50 in experiment [1] was 1970 nM; in [2], 1210 nM; in [3], 9.62 µM; in [4] it was 2550 nM; in experiment [5], 2080 nM; in experiment [6], 1670 nM. In addition, the GI50 is 1.59 µM in experiment [7], 11.3 µM in [8], 1670 nM in experiment [9] and 3550 nM in [10]. The TGI turned out to be 3.62 µM in experiment [1]; 2.66 µM in [2]; 26.4 µM in [3]; 6.99 µM in experiment [4]; 4.37 µM in experiment [5]; 3.08 µM in experiment [6]. Further, the TGI in experiment [7] turned out to be 3.09 µM; in experiment [8], 24.4 µM; in experiment [9], 3.24 µM; in experiment [10] it was 12.2 µM.

Turning to `NS(=O)(=O)c1ccc(NC(=O)c2cccc3c(=O)c4ccccc4[nH]c23)cc1`, the TGI in experiment [1], in experiment [2], in [3], in experiment [4], in [5] and in [6] was more than 100 µM in each case. Moreover, the TGI in [7] is 55.2 µM; in experiment [8], 65.6 µM; in [9], more than 100 µM; in experiment [10], more than 100 µM.

As for `COc1cc(/C=C\c2ccc(O)cc2)cc(OC)c1OC`, the TGI in [1] was more than 23.6 µM; in experiment [2], more than 100 µM; in experiment [3], more than 53.6 µM; in experiment [4] it was more than 100 µM; in experiment [5], more than 29.1 µM; in experiment [6] it was more than 59.8 µM. Besides, the TGI in [7] was more than 30 µM; in experiment [8] it was 61.6 µM; in experiment [9], more than 100 µM; in experiment [10], 6.24 µM.

Regarding `CCCCCC(C(O)C#N)C(O)(C(F)(F)F)C(F)(F)F` (stereo unspecified), the TGI in experiment [1], in [2], in experiment [3], in experiment [4], in [5] and in [6] was more than 10 µM each time. The TGI in [7], in experiment [8], in [9] and in experiment [10] was more than 10 µM each time.

Take `Cc1c(-c2nc(N)nc(C3CC3)c2C)nc(N)nc1C1CC1`: the TGI in [1], in [2], in experiment [3], in [4], in experiment [5] and in experiment [6] was more than 100 µM throughout. For the same compound, the TGI in experiment [7], in experiment [8], in experiment [9] and in experiment [10] was more than 100 µM throughout.

For `CC1(C)CCc2cc3c(cc2O1)OCCC3=O`, the TGI in experiment [1], in experiment [2], in [3], in [4], in [5] and in experiment [6] was more than 100 µM in each case. For the same compound, the TGI in [7], in experiment [8], in experiment [9] and in experiment [10] was more than 100 µM each time.

Consider `CS(=O)(=O)Nc1ccc(-c2ccc3c(NC(=O)C4CC4)n[nH]c3c2)cc1`, for which the GI50 in [1] was more than 25000 nM; in [2], more than 25000 nM; in experiment [3], more than 25 µM; in experiment [4], more than 25000 nM; in [5] it was 22700 nM; in experiment [6], more than 25000 nM. Moreover, the GI50 in experiment [7] was more than 25 µM; in experiment [8], 13.7 µM; in [9] it was more than 25000 nM; in experiment [10], more than 21200 nM. For the same compound, the TGI in experiment [1], in experiment [2], in [3], in [4], in experiment [5] and in [6] was more than 25 µM each time. In addition, the TGI in experiment [7], in experiment [8], in experiment [9] and in [10] was more than 25 µM throughout.

Consider `FC(F)(F)c1ccc2c(Nc3cccc(C4CC(c5ccccc5)=NN4c4ccc(Cl)cc4)c3)ccnc2c1` (stereo unspecified), for which the GI50 in [1] was 3240 nM; in experiment [2] it was 1610 nM; in experiment [3], 2.96 µM; in experiment [4], 2570 nM; in experiment [5], 2640 nM; in experiment [6], 1620 nM. For the same compound, the GI50 is 2.67 µM in experiment [7], 11.2 µM in experiment [8], 2730 nM in experiment [9] and 2210 nM in experiment [10]. Moreover, the TGI came to 14.4 µM in experiment [1]; 4.26 µM in experiment [2]; 14.6 µM in [3]; 11 µM in experiment [4]; 10.6 µM in experiment [5]; 3.63 µM in experiment [6]. Besides, the TGI in experiment [7] is 20.8 µM; in experiment [8], 36.4 µM; in experiment [9] it was 10.7 µM; in [10] it was 6.02 µM.

Consider `CCN(Cc1c(F)cccc1F)c1ccc(CO)c(Cl)c1`, for which the GI50 in experiment [1] is 195 nM; in experiment [2], 9040 nM; in [3], 15.4 µM; in experiment [4] it was 40.1 nM; in [5], 51.7 nM; in [6] it was 29.1 nM. For the same compound, the GI50 is 11 µM in experiment [7], 1.65 µM in experiment [8], 15300 nM in experiment [9] and 63.4 nM in experiment [10]. The TGI in experiment [1] turned out to be 32.5 µM; in experiment [2], 48.8 µM; in [3] it was 58.5 µM; in experiment [4] it was 0.193 µM; in [5] it was 0.325 µM; in [6] it was 12.8 µM. The TGI was found to be 49.6 µM in experiment [7], 9.91 µM in [8], 45.6 µM in experiment [9] and 0.317 µM in [10].

As for `COc1ccc(NC2=C(Br)C(=O)C(C)=C(C)C2=O)cc1`, the GI50 in experiment [1] is 1930 nM; in [2] it was 11400 nM; in experiment [3] it was 11 µM; in experiment [4], 1800 nM; in experiment [5] it was 7740 nM; in [6] it was 1760 nM. The GI50 was 11 µM in experiment [7], 12.3 µM in [8], 15700 nM in [9] and 1720 nM in experiment [10]. Moreover, the TGI in [1] was 3.98 µM; in [2], 27.7 µM; in [3], 23.2 µM; in experiment [4], 3.39 µM; in [5], 20.7 µM; in experiment [6], 3.37 µM. Also, the TGI in experiment [7] worked out at 23.5 µM; in [8] it was 26.1 µM; in experiment [9], 29.9 µM; in experiment [10], 3.13 µM.

On to `CN(C)C(=S)/N=c1\ss/c(=N\S(=O)(=O)c2ccccc2)n1-c1ccccc1`, for which the TGI in [1], in [2], in experiment [3], in experiment [4], in [5] and in experiment [7] was more than 100 µM in each case. The TGI in experiment [8], in [9] and in experiment [10] was more than 100 µM in each case.

Consider `Oc1ccc(Cc2ccccc2)c2cccnc12`, for which the GI50 in experiment [1] was 999 nM; in experiment [2] it was 507 nM; in [3] it was 2.61 µM; in [4], 2200 nM; in experiment [5] it was 2320 nM; in [6] it was 1790 nM. In addition, the GI50 in experiment [7] is 14.7 µM; in [8] it was 3.43 µM; in experiment [9] it was 2040 nM; in experiment [10], 6700 nM. The TGI in [1] was 37.7 µM; in experiment [2] it was 44.9 µM; in experiment [3], more than 100 µM; in experiment [4], 32.8 µM; in experiment [5], 6.04 µM; in experiment [6], 21.5 µM. Besides, the concentration for total growth inhibition (TGI) in experiment [7] was more than 100 µM; in experiment [8] it was more than 100 µM; in experiment [9] it was 6.57 µM; in [10], 37.6 µM.

Consider `CC(=O)c1c(C)n([O-])c2cc(C)c(C)cc2[n+]1=O`, for which the TGI in experiment [1], in experiment [2], in [3], in experiment [4], in [5] and in [7] was more than 100 µM each time. In addition, the TGI in [8], in experiment [9] and in experiment [10] was more than 100 µM in each case.

With `Cn1c(N)nc2c(nc(OCc3ccccc3)n2C2OC(CO)C(O)C2O)c1=O` (stereo unspecified), the concentration for total growth inhibition (TGI) in [1], in experiment [3], in experiment [4], in [5], in experiment [6] and in experiment [7] was more than 100 µM each time. Further, the TGI in experiment [8], in experiment [9] and in experiment [10] was more than 100 µM throughout.

On to `COc1ccc(C2C(N)=NCC2c2ccccn2)cc1` (stereo unspecified), for which the TGI in experiment [1], in experiment [3], in experiment [4], in [5], in experiment [6] and in experiment [7] was more than 100 µM throughout. Also, the TGI in experiment [8], in [9] and in [10] was more than 100 µM in each case.
